Results on three molecules are retold here after article PMC8231556, “Inhibiting Endothelial Cell Function in Normal and Tumor Angiogenesis Using BMP Type I Receptor Macrocyclic Kinase Inhibitors” (Cancers, 2021).

Structures are written as SMILES.

What all share (assay): radiometric kinase profiling (33 PanQinase)
Format in all cases: biochemical

The target in one assay is T1, DNAPK (Homo sapiens, UniProt P78527).
T1 construct: purchased Proqinase, Germany
The note with it: read-out: Inhibitory effect (%) DNAPK. In short, it runs like this:
(§1)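 Enzyme/substrate mixes were incubated with [γ-33P]-ATP and compound (added as a 0.1 μM solution in 10% DMSO) at 30 °C for 60 min, then stopped with H3PO4 and washed with NaCl. 33P incorporation was scintillation-counted, and residual activity (%) was normalized to untreated control and background.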

The target in a further assay is T2, CAMKK1 (Homo sapiens, UniProt Q8N5S9).
T2 construct: purchased Proqinase, Germany
T2 sequence (Q8N5S9 whole entry): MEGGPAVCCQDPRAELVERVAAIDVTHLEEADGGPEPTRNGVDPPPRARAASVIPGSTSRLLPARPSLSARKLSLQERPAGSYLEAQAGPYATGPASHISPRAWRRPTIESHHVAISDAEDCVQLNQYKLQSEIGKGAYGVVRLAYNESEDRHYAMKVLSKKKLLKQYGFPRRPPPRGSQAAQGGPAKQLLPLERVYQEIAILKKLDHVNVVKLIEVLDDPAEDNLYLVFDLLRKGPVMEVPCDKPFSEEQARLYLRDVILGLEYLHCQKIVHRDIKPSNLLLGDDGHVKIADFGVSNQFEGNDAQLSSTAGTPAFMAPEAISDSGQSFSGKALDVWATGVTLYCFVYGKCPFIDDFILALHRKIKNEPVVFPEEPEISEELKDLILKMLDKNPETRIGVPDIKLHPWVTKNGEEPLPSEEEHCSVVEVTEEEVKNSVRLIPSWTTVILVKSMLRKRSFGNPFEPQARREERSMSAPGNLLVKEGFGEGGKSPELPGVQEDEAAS
To be noted: read-out: Inhibitory effect (%) CAMKK1. In short, it runs like this:
as §1

The next assay addresses T3, MAPK14 (Homo sapiens, UniProt Q16539).
T3 construct: purchased ProQinase (33PanQinase Activity Assay)
To be noted: read-out: Inhibitory effect (%) MAPK14. In short, it runs like this: as §1

For a further assay, the target named is T4, MAPK3 (Homo sapiens, UniProt P27361).
T4 construct: purchased ProQinase (33PanQinase Activity Assay)
T4 sequence (P27361 whole entry): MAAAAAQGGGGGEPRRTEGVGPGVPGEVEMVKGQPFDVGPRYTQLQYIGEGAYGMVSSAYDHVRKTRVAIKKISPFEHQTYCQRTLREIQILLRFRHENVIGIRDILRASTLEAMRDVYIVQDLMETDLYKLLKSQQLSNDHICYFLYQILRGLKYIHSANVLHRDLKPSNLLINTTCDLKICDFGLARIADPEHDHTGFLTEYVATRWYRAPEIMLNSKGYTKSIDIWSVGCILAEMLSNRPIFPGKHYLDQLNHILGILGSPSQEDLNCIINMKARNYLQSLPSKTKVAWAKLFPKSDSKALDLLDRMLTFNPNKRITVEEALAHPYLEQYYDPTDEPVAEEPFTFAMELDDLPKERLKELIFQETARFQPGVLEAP
To be noted: read-out: Inhibitory effect (%) MAPK3. In short, it runs like this:
as §1

For a further assay, the target named is T5, PRKCB1_II (Homo sapiens, UniProt P05771).
T5 construct: purchased ProQinase (33PanQinase Activity Assay)
T5 sequence (P05771 1-673 isoform P05771-2): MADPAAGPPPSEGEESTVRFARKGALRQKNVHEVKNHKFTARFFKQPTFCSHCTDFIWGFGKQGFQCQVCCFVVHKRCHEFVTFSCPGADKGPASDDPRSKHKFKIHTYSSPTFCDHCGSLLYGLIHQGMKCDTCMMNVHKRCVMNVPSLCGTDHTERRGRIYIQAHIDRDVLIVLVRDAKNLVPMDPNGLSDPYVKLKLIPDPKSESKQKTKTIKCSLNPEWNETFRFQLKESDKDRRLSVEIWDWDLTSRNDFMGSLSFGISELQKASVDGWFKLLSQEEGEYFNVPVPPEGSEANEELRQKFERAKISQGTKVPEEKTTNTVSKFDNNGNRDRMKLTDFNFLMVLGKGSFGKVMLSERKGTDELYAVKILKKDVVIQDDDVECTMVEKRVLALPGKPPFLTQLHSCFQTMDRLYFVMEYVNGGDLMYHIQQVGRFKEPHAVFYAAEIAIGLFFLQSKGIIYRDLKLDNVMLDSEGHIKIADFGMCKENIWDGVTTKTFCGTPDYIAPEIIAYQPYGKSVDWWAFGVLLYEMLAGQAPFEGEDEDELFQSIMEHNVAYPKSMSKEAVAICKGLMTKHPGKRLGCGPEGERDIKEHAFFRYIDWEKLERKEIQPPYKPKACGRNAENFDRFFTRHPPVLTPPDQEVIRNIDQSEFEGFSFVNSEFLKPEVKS
To be noted: read-out: Inhibitory effect (%) PRKCB1_II. In short, it runs like this:
as §1

The target in the next assay is T6, CHEK1 (Homo sapiens, UniProt O14757).
T6 construct: purchased Proqinase, Germany
T6 sequence (O14757 1-476): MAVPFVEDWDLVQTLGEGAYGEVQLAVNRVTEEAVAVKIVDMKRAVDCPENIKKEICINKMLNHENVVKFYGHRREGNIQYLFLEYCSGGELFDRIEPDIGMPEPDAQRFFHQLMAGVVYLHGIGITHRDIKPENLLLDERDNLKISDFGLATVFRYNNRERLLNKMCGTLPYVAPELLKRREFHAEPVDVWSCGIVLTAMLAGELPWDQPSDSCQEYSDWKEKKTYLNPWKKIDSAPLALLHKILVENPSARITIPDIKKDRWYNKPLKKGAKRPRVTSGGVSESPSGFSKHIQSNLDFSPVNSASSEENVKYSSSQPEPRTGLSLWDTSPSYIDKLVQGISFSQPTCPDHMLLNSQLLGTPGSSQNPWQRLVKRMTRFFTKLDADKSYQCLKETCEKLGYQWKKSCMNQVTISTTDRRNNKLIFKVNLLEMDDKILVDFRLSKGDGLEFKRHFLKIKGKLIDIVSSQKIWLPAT
The note with it: read-out: Inhibitory effect (%) CHEK1. In short, it runs like this: as §1

The target of the next assay is T7, PHKG2 (Homo sapiens, UniProt P15735).
T7 construct: purchased ProQinase (33PanQinase Activity Assay)
T7 sequence (P15735 1-406): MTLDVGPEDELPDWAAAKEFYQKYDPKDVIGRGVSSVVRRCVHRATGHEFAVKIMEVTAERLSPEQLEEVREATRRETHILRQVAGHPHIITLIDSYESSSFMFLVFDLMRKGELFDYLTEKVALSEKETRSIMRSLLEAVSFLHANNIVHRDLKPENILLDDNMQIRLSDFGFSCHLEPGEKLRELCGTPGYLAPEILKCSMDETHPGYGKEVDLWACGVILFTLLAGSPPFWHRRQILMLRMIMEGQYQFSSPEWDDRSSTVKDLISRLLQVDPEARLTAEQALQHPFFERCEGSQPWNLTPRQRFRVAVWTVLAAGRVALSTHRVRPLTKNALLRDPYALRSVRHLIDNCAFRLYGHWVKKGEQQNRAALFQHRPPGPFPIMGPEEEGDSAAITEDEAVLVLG
To be noted: read-out: Inhibitory effect (%) PHKG2. In short, it runs like this: as §1

The next assay has as its target T8, CAMK1D (Homo sapiens, UniProt Q8IU85).
T8 construct: purchased Proqinase, Germany
To be noted: read-out: Inhibitory effect (%) CAMK1D. In short, it runs like this: as §1

Another assay has as its target T9, AXL (Homo sapiens, UniProt P30530).
T9 construct: purchased Proqinase, Germany
T9 sequence (P30530 26-894): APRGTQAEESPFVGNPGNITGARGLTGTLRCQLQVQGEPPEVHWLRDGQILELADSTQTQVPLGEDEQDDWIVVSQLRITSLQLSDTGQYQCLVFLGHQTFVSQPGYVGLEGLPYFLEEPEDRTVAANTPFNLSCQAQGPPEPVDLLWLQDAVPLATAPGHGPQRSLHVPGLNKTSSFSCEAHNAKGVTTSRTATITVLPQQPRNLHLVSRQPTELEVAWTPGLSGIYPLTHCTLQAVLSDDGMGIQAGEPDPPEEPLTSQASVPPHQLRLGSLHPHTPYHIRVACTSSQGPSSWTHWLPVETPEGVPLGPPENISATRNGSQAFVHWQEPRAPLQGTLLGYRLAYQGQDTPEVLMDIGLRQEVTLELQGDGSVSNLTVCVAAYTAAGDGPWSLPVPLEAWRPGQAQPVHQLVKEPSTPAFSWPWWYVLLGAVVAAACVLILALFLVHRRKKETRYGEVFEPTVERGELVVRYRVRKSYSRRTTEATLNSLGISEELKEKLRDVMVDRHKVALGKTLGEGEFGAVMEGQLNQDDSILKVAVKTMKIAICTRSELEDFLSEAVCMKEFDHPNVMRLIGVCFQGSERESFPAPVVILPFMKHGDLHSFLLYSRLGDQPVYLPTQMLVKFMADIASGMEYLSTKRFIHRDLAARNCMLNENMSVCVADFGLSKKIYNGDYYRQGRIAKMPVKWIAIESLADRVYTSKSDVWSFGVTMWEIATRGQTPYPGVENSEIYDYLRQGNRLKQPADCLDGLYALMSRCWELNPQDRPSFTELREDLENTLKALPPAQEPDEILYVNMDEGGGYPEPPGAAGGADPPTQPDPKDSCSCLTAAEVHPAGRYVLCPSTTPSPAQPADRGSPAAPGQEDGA
The note with it: read-out: Inhibitory effect (%) AXL. In short, it runs like this:
as §1

The next assay deals with T10, EPHA5 (Homo sapiens, UniProt P54756).
T10 construct: purchased ProQinase (33PanQinase Activity Assay)
T10 sequence (P54756 25-1037): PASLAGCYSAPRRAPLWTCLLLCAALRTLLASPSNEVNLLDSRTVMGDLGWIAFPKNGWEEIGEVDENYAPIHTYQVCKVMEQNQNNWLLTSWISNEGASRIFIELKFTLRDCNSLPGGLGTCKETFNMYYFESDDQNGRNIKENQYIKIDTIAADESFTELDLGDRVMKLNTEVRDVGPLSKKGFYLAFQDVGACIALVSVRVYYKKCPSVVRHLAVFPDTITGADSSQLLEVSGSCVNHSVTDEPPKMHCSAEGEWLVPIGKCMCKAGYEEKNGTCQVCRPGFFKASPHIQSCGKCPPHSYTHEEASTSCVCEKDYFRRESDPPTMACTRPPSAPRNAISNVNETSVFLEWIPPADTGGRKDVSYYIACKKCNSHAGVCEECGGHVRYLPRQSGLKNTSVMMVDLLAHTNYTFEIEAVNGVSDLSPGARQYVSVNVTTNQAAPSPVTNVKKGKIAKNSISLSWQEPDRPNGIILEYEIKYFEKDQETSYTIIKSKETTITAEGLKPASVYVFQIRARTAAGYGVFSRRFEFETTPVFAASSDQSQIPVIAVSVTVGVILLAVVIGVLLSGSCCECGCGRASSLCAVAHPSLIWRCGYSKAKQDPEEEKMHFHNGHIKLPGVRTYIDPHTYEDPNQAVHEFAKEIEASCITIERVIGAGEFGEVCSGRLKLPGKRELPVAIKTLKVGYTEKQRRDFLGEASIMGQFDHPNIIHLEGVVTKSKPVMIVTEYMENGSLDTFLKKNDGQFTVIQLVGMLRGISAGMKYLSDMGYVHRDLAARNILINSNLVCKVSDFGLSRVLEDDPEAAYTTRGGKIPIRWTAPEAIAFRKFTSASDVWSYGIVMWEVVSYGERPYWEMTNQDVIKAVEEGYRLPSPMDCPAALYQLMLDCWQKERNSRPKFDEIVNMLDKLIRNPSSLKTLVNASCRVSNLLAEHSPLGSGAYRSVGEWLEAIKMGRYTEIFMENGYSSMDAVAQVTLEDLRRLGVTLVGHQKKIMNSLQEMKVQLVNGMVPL
The note with it: read-out: Inhibitory effect (%) EPHA5. In short, it runs like this: as §1

T3 sequence (Q16539 whole entry): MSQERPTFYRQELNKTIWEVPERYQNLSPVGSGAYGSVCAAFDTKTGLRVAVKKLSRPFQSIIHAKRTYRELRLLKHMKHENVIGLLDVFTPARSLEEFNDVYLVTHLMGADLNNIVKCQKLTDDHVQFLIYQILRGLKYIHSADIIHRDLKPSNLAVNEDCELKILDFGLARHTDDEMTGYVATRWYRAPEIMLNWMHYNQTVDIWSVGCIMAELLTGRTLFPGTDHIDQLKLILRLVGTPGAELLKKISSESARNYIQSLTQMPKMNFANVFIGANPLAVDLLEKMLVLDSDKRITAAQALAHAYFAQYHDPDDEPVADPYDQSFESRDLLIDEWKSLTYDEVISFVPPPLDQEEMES
T8 sequence (Q8IU85 whole entry): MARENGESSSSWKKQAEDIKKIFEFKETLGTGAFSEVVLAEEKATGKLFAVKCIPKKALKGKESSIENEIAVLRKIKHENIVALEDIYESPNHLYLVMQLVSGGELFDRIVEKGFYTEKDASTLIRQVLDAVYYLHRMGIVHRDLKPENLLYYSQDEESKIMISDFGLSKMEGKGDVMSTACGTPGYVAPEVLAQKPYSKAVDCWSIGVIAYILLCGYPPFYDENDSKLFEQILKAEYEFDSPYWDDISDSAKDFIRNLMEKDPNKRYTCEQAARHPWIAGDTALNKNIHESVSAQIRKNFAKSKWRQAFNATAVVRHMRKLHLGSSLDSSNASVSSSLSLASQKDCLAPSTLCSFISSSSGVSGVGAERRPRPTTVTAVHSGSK

On to `c1ccc2c(-c3cnn4cc(-c5ccc(N6CCNCC6)cc5)cnc34)ccnc2c1` [LDN-193189, reference compound], for which the inhibition at 0.1 µM is -29.6% on DNAPK; 0.77% on CAMKK1; 0.3% at MAPK14; -8.08% on MAPK3; 1.8% at PRKCB1_II; -34.6% on CHEK1. In addition, the inhibition at 0.1 µM was -23.6% on PHKG2, 4.59% at CAMK1D, 10.7% on AXL and -0.32% on EPHA5.

Take `CN1CCc2cccc(c2)Nc2nccc(n2)N2CCCc3cc(ccc32)C1` [OD16]: the inhibition at 0.1 µM at DNAPK was -8.88%; on CAMKK1, -1.72%; at MAPK14, -3.1%; at MAPK3 it was -13.8%; on PRKCB1_II it was 15.9%; at CHEK1 it was 0.85%. Further, the inhibition at 0.1 µM at PHKG2 was 1.87%; on CAMK1D, -5.9%; at AXL, -34.5%; at EPHA5, -65.7%.

Regarding `CN1CCC(=O)NCCNc2ccn3ncc(c3n2)-c2cccc(c2)C1` [OD29], the inhibition at 0.1 µM on DNAPK is 12.9%; at CAMKK1 it was -29.5%; on MAPK14, 45.2%; at MAPK3 it was -7.55%; on PRKCB1_II, 3.7%; on CHEK1, 4.25%. In addition, the inhibition at 0.1 µM at PHKG2 was -1.93%; on CAMK1D, -7.41%; at AXL, 5.83%; at EPHA5, 14.8%.
